In US20020137929A1, “1 - (3-heterocyclylphenyl) isothiourea, -isourea, -guanidine and -amidine herbicidal agents” (Intellectual Property Department, BASF Aktiengesellschaft, priority 1998, published 2002):

Tests used:
[1] = test system: CASOB (Sicklepod); experiment: Postemergence herbicidal evaluation; format: in vivo, Cassia obtusifolia; conditions: postemergence
How it was run: (§1)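 Scores (0–9) reflect plant stand, vigor, malformation, size, chlorosis and general appearance relative to control, read 4 to 5 weeks after treatment and averaged where tests were repeated. Application: about 0.0156–0.500 kg/ha sprayed at 40 psi onto two-week seedlings.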

[2] = test system: CHEAL (Lambsquarters, Common); experiment: Postemergence herbicidal evaluation; format: in vivo, Chenopodium album; conditions: postemergence
How it was run: as §1

[3] = test system: GALAP (Galium); experiment: Postemergence herbicidal evaluation; format: in vivo, Galium aparine; conditions: postemergence
How it was run: as §1

[4] = test system: ECHCG (Barnyardgrass); experiment: Postemergence herbicidal evaluation; format: in vivo, Echinochloa crus-galli; conditions: postemergence
How it was run: as §1

[5] = test system: SETVI (Foxtail, Green); experiment: Postemergence herbicidal evaluation; format: in vivo, Setaria viridis; conditions: postemergence
How it was run: as §1

[6] = test system: TRZAWR (Wheat, Winter, cv Riband); experiment: Postemergence herbicidal evaluation; format: in vivo, Triticum aestivum; conditions: postemergence
How it was run: as §1

[7] = test system: ABUTH (Velvetleaf); experiment: Preemergence herbicidal evaluation; format: in vivo, Abutilon theophrasti; conditions: rated 4-5 weeks after treatment
How it was run: (§2)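 Steps: mix seeds into potting soil; plant atop ~1 inch soil; spray compound in aqueous acetone (~0.0156-0.500 kg/ha equivalent); maintain in greenhouse with watering; rate visually 0-9 versus control at 4-5 weeks.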

[8] = test system: ECHCG (Barnyardgrass); experiment: Preemergence herbicidal evaluation; format: in vivo, Echinochloa crus-galli; conditions: rated 4-5 weeks after treatment
How it was run: as §2

[9] = test system: ZEAMX (Corn, Field); experiment: Preemergence herbicidal evaluation; format: in vivo, Zea mays; conditions: rated 4-5 weeks after treatment
How it was run: as §2

[10] = test system: CYPIR (Rice Flatsedge); experiment: Preemergence weed control under flooded paddy conditions; format: in vivo, Cyperus iria; conditions: rated 3-4 weeks after treatment
How it was run: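 Ratings on a 0-9 visual scale cover stand, vigor, malformation, size, chlorosis and overall appearance relative to a control, taken three to four weeks post-treatment. Application was into flood water over freshly sown silt loam at roughly 0.0313 to 0.500 kg/ha.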

[11] = test system: MOOVA (Monochoria); experiment: as above; format: in vivo, Monochoria vaginalis; conditions: rated 3-4 weeks after treatment
How it was run: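 Seeds or propagules sown in silt loam kept flooded 1.5-3 cm; compounds in 50/50 acetone/water pipetted into flood water at about 0.0313 to 0.500 kg/ha. Greenhouse; visual 0-9 rating versus untreated control 3-4 weeks after treatment.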

[12] = test system: SAGPY (Arrowhead (Pygmaea)); experiment: Postemergence weed control under flooded paddy conditions; format: in vivo, Sagittaria pygmaea; conditions: postemergence weeds, 3-4 weeks after treatment
How it was run: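 Flood-water application, about 0.0313–0.500 kg/ha a.i. in aqueous/acetone 50/50 v/v; water depth 1.5–3 cm throughout. Weeds 3–5 cm, rice 1.5–2.5 leaf. Greenhouse; 0–9 visual rating vs control at 3–4 wk.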

CC1SC(=Nc2cc(N3C(=O)C4=C(CCCC4)C3=O)c(F)cc2Cl)N(C)C1=O (centres unmarked) [Compound 4]
CASOB herbicidal rating ([1]; rate 0.0313 kg/ha): 0.0
CASOB herbicidal rating ([1]; rate 0.0625 kg/ha): 0.0
CASOB herbicidal rating ([1]; rate 0.1250 kg/ha): 0.0
CASOB herbicidal rating ([1]; rate 0.2500 kg/ha): 0.0
CASOB herbicidal rating ([1]; rate 0.5000 kg/ha): 2.0
CHEAL herbicidal rating ([2]; rate 0.0313 kg/ha): 2.0
CHEAL herbicidal rating ([2]; rate 0.0625 kg/ha): 6.0
CHEAL herbicidal rating ([2]; rate 0.1250 kg/ha): 8.0
CHEAL herbicidal rating ([2]; rate 0.2500 kg/ha): 4.0
CHEAL herbicidal rating ([2]; rate 0.5000 kg/ha): 4.0
GALAP herbicidal rating ([3]; rate 0.0313 kg/ha): 0.0
GALAP herbicidal rating ([3]; rate 0.0625 kg/ha): 2.0
GALAP herbicidal rating ([3]; rate 0.1250 kg/ha): 2.0
GALAP herbicidal rating ([3]; rate 0.5000 kg/ha): 6.0
ECHCG herbicidal rating ([4]; rate 0.0313 kg/ha): 0.0
ECHCG herbicidal rating ([4]; rate 0.0625 kg/ha): 0.0
ECHCG herbicidal rating ([4]; rate 0.1250 kg/ha): 0.0
ECHCG herbicidal rating ([4]; rate 0.2500 kg/ha): 4.0
ECHCG herbicidal rating ([4]; rate 0.5000 kg/ha): 2.0
SETVI herbicidal rating ([5]; rate 0.0313 kg/ha): 0.0
SETVI herbicidal rating ([5]; rate 0.0625 kg/ha): 2.0
SETVI herbicidal rating ([5]; rate 0.1250 kg/ha): 0.0
SETVI herbicidal rating ([5]; rate 0.2500 kg/ha): 2.0
SETVI herbicidal rating ([5]; rate 0.5000 kg/ha): 8.0
TRZAWR herbicidal rating ([6]; rate 0.0313 kg/ha): 3.0
TRZAWR herbicidal rating ([6]; rate 0.0625 kg/ha): 3.5
TRZAWR herbicidal rating ([6]; rate 0.1250 kg/ha): 4.0
TRZAWR herbicidal rating ([6]; rate 0.2500 kg/ha): 4.5
TRZAWR herbicidal rating ([6]; rate 0.5000 kg/ha): 4.5
ABUTH preemergence herbicidal rating ([7]; rate 0.1250 kg/ha): 0.0
ABUTH preemergence herbicidal rating ([7]; rate 0.2500 kg/ha): 2.0
ABUTH preemergence herbicidal rating ([7]; rate 0.5000 kg/ha): 8.0
ECHCG preemergence herbicidal rating ([8]; rate 0.1250 kg/ha): 0.0
ECHCG preemergence herbicidal rating ([8]; rate 0.2500 kg/ha): 2.0
ECHCG preemergence herbicidal rating ([8]; rate 0.5000 kg/ha): 6.0
ZEAMX preemergence herbicidal rating ([9]; rate 0.1250 kg/ha): 2.0
ZEAMX preemergence herbicidal rating ([9]; rate 0.2500 kg/ha): 2.0
ZEAMX preemergence herbicidal rating ([9]; rate 0.5000 kg/ha): 4.0
Herbicidal rating CYPIR ([10]; 0.0313 kg/ha): 0.0
Herbicidal rating CYPIR ([10]; 0.0625 kg/ha): 4.0
Herbicidal rating CYPIR ([10]; 0.1250 kg/ha): 8.0
Herbicidal rating CYPIR ([10]; 0.2500 kg/ha): 9.0
Herbicidal rating CYPIR ([10]; 0.5000 kg/ha): 9.0
Herbicidal rating MOOVA ([11]; 0.0313 kg/ha): 2.0
Herbicidal rating MOOVA ([11]; 0.0625 kg/ha): 7.0
Herbicidal rating MOOVA ([11]; 0.1250 kg/ha): 8.0
Herbicidal rating MOOVA ([11]; 0.2500 kg/ha): 9.0
Herbicidal rating MOOVA ([11]; 0.5000 kg/ha): 9.0
Herbicidal rating SAGPY ([12]; rate 0.0313 kg/ha): 0.0
Herbicidal rating SAGPY ([12]; rate 0.0625 kg/ha): 0.0
Herbicidal rating SAGPY ([12]; rate 0.1250 kg/ha): 0.0
Herbicidal rating SAGPY ([12]; rate 0.2500 kg/ha): 0.0
Herbicidal rating SAGPY ([12]; rate 0.5000 kg/ha): 0.0
